Assay results taken from patent US8957108B2, “Use of 5,6-dimethylxanthenone-4-acetic acid as an antiviral agent” (University of Maryland, Baltimore, priority 2006, dated 2015).

Test system: C57BL/6J macrophages
[1] = DMXAA 3 h vs unstimulated wild-type cells
[2] = ratio of fold change, wild-type vs IFN-β-deficient cells

SMILES: Cc1ccc2c(=O)c3cccc(CC(=O)O)c3oc2c1C [DMXAA, 5,6-dimethylxanthenone-4-acetic acid]
- ZBP1 Fold Change: BL/6 [1]: 15.4 fold
- ZNF313 Fold Change: BL/6 [1]: 3.2 fold
- number of modulated genes that are IFN-β-dependent (of the 136 genes, 3-fold difference wild-type vs IFN-β−/−): 77 genes
- number of genes with ≧3-fold change in expression (of ˜14,000 genes analyzed, 3 h, vs medium-treated cells): 136 genes
- 2310043N10RIK WT/KO [2]: 3.2
- 5830484A20RIK WT/KO [2]: 1.4
- ABCB1 WT/KO [2]: 1.1
- ABL1 WT/KO [2]: 5.6
- ABLIM1 WT/KO [2]: 7.1
- ACVR1B WT/KO [2]: 1.9
- ADRB2 WT/KO [2]: 1.9
- AFTIPHILIN WT/KO [2]: 3.0
- AKAP12 WT/KO [2]: 2.2
- AMPD3 WT/KO [2]: 1.5
- AP2A2 WT/KO [2]: 1.1
- APBB1IP WT/KO [2]: 2.2
- APOBEC3F WT/KO [2]: 2.5
- ARHGEF3 WT/KO [2]: 2.1
- ARID3A WT/KO [2]: 1.6
- ARL4C WT/KO [2]: 1.0
- ASF1A WT/KO [2]: 1.8
- ATRX WT/KO [2]: 1.6
- B3GAT3 WT/KO [2]: 5.5
- BACE1 WT/KO [2]: 3.2
- BAMBI WT/KO [2]: 2.7
- BCL2L1 WT/KO [2]: 6.0
- BCL2 WT/KO [2]: 5.4
- BHLHB2 WT/KO [2]: 3.0
- BID WT/KO [2]: 1.1
- C8ORF4 WT/KO [2]: 8.7
- C9ORF26 WT/KO [2]: 2.1
- CCL2 WT/KO [2]: 21.7
- CCL3 WT/KO [2]: 4.1
- CCL4 WT/KO [2]: 1.9
- CCL5 WT/KO [2]: 1.4
- CCL7 WT/KO [2]: 3.2
- CCL13 WT/KO [2]: 2.9
- CCND2 WT/KO [2]: 3.2
- CCNE1 WT/KO [2]: 1.1
- CCNF WT/KO [2]: 4.4
- CCRN4L WT/KO [2]: 3.6
- CD37 WT/KO [2]: 4.7
- CD40 WT/KO [2]: 7.9
- CD86 WT/KO [2]: 1.8
- CD274 WT/KO [2]: 5.9
- CDC6 WT/KO [2]: 1.2
- CDC7 WT/KO [2]: 2.2
- CDC37L1 WT/KO [2]: 1.7
- CDKN1A WT/KO [2]: 2.7
- CEBPB WT/KO [2]: 1.7
- CITED2 WT/KO [2]: 4.6
- CLCA1 WT/KO [2]: 2.5
- CNR2 WT/KO [2]: 4.0
- CREBBP WT/KO [2]: 0.7
- CXCL10 WT/KO [2]: 3.3
- DAXX WT/KO [2]: 4.9
- DSCR1 WT/KO [2]: 1.3
- FGD6 WT/KO [2]: 1.5
- FGL2 WT/KO [2]: 2.9
- GBP2 WT/KO [2]: 3.1
- GBP4 WT/KO [2]: 1.6
- GBP6 WT/KO [2]: 1.6
- GYPC WT/KO [2]: 1.3
- IFI16 WT/KO [2]: 1.6
- IFI35 WT/KO [2]: 3.3
- IFI203 WT/KO [2]: 6.4
- IFI205 WT/KO [2]: 3.5
- IFIH1 WT/KO [2]: 1.4
- IFIT1 WT/KO [2]: 1.5
- IFIT2 WT/KO [2]: 1.9
- IFIT3 WT/KO [2]: 3.1
- IFNA5 WT/KO [2]: 12.9
- IFNA6 WT/KO [2]: 8.6
- IFNB1 WT/KO [2]: 178.6
- IFNG WT/KO [2]: 0.8
- IGTP WT/KO [2]: 11.2
- IIGP1 WT/KO [2]: 18.7
- IL6 WT/KO [2]: 41.8
- IL12B WT/KO [2]: 3.2
- IL15RA WT/KO [2]: 4.5
- IL15 WT/KO [2]: 4.3
- IRF1 WT/KO [2]: 5.9
- IRF2 WT/KO [2]: 3.5
- IRGM WT/KO [2]: 2.9
- ISG20 WT/KO [2]: 6.1
- KATNA1 WT/KO [2]: 2.1
- LGP2 WT/KO [2]: 2.4
- LHX2 WT/KO [2]: 11.9
- LOC129607 WT/KO [2]: 7.6
- MAFK WT/KO [2]: 3.0
- MARCH5 WT/KO [2]: 2.5
- MOV10 WT/KO [2]: 3.4
- MX1 WT/KO [2]: 20.7
- MX2 WT/KO [2]: 74.3
- NMI WT/KO [2]: 2.9
- NP WT/KO [2]: 2.5
- NT5C3 WT/KO [2]: 3.6
- OAS1B WT/KO [2]: 6.2
- OASL WT/KO [2]: 1.8
- P4HA1 WT/KO [2]: 1.2
- P8 WT/KO [2]: 2.9
- PARP9 WT/KO [2]: 2.8
- PELI1 WT/KO [2]: 1.4
- PGF WT/KO [2]: 1.3
- PLAU WT/KO [2]: 1.7
- PPP1R15A WT/KO [2]: 3.4
- PTX3 WT/KO [2]: 4.0
- PVRL2 WT/KO [2]: 2.1
- PVRL4 WT/KO [2]: 2.1
- REL WT/KO [2]: 2.8
- RGC32 WT/KO [2]: 2.9
- RIPK2 WT/KO [2]: 2.5
- RSAD2 WT/KO [2]: 2.0
- SAP30 WT/KO [2]: 2.4
- SAV1 WT/KO [2]: 1.2
- SDC4 WT/KO [2]: 1.2
- SECTM1 WT/KO [2]: 15.0
- SLC7A2 WT/KO [2]: 2.0
- SOAT1 WT/KO [2]: 1.8
- SOCS1 WT/KO [2]: 16.7
- STAT2 WT/KO [2]: 2.3
- TGTP WT/KO [2]: 38.6
- TLK2 WT/KO [2]: 3.0
- TLR3 WT/KO [2]: 6.8
- TMOD3 WT/KO [2]: 1.5
- TNF WT/KO [2]: 5.0
- TNFRSF11B WT/KO [2]: 0.9
- TNFSF9 WT/KO [2]: 3.0
- TOR1AIP1 WT/KO [2]: 2.4
- TPST1 WT/KO [2]: 1.1
- TREX1 WT/KO [2]: 2.0
- TRIM21 WT/KO [2]: 3.2
- TRIM25 WT/KO [2]: 1.8
- TRIM34 WT/KO [2]: 1.7
- USP18 WT/KO [2]: 11.4
- VCAM1 WT/KO [2]: 2.1
- ZBP1 WT/KO [2]: 3.7
- ZNF313 WT/KO [2]: 2.1
